Data reported in patent US6277866A, “1-benzyl-4[(5,6-dimethoxy-2-fluoro-1-indanon)-2-yl]methylpiperidine” (priority 1999, dated 2001).
Structures can show the parent of a compound that is named as a salt.

Target: T1, acetylcholinesterase (Rattus norvegicus, UniProt P37136)
T1 construct: Using a rat brain homogenate as a source of acetylcholinesterase; from tissue; host or cells: rat brain homogenate
Test: Inhibitory action on acetylcholinesterase in vitro (rat brain homogenate, Ellman method)
Type: biochemical
Conditions: acetylthiocholine substrate, DTNB, 412 nm, compounds dissolved in physiological saline, read-out: 50% inhibitory concentration (IC50) on acetylcholinesterase
Experimental: Inhibitory action on acetylcholinesterase in vitro
Using a rat brain homogenate as a source of acetylcholinesterase, its esterase activity was measured in accordance with the method of Ellman et al^1). Acetylthiocholine as the substrate, sample and DTNB (5,5'-dithiobis(2-nitrobenzoic acid)) were added to the homogenate and incubated, whereby the produced thiocholine was reacted with DTNB and the resulting yellow product was measured for the change of absorbance at 412 nm to determine the acetylcholinesterase activity.
Each of the following compounds was used after dissolved in physiological saline.

T1 sequence (P37136 32-614): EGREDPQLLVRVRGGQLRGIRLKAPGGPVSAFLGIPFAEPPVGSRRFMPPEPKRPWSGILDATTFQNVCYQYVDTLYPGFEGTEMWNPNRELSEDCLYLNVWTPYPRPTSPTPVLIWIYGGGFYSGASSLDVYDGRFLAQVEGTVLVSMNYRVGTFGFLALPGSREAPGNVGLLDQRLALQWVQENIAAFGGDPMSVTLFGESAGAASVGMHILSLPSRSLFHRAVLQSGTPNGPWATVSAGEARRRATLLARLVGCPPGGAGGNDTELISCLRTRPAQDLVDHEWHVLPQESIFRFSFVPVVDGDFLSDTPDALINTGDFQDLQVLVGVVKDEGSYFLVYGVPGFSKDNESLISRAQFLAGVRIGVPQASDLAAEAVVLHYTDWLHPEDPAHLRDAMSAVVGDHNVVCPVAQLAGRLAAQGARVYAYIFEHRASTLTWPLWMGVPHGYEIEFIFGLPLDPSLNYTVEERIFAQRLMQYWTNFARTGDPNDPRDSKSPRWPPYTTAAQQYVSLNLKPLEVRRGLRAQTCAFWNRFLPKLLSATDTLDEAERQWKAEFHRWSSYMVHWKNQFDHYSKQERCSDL

Work on `COc1cc2c(cc1OC)C(=O)C(F)(CC1CCN(Cc3ccccc3)CC1)C2` (stereo not shown) [Compound 1, 1-benzyl-4-[5,6-dimethoxy-2-fluoro-1-indanon)-2-yl]methylpiperidine hydrochloride] yielded an IC50 of 1.3 nM.
